Values quoted from earlier work as cited in patent US20260191920A1, “METHODS AND COMPOSITIONS FOR TREATING AND PREVENTING CENTRAL NERVOUS SYSTEM DISORDERS AND OTHER CONDITIONS CAUSED BY GUT MICROBIAL DYSBIOSIS” (HOLOBIOME, INC., priority 2019, published 2026).

Columns and labels:
[1] = by day 6, mice pretreated with oral antibiotics, regardless of diet; cited from earlier work
[2] = test system: (Q+)tRNA^His and (Q+)tRNA^Asn in the liver; settings: queuine-deficient mice, intraperitoneal, 325 micrograms per injection, 24 h apart; cited from earlier work
[3] = test system: germ-free mice; settings: chemically synthesized queuine at 0.1 μM in the diet; cited from earlier work

Row | Compound | fraction of ingested dose eliminated [1] | (Q+)tRNA^His and (Q+)tRNA^Asn percentages in the liver [2] | effect on adverse health effects and death of tyrosine- and queuine-deprived germ-free mice [3]
1 | [CH3][Hg][Cl] [methylmercury] | 0-6% | – | –
2 | Nc1nc2[nH]cc(CN[C@H]3C=C[C@H](O)[C@@H]3O)c2c(=O)[nH]1 [queuine, 2-amino-5-((((1S,4S,5R)-4,5-dihydroxy-2-cyclopenten-1-yl)amino)methyl)-1,7-dihydro-4H-pyrrolo (2,3-d) pyrimidin-4-one] | – | corresponding increase | prevented emergence of these deleterious effects
